Results reported in patent publication US20240041042A1, “1-(PYRIDYL)-5-AZINYLPYRAZOLE DERIVATIVES, AND THEIR USE FOR CONTROL OF UNDESIRED PLANT GROWTH” (Bayer Aktiengesellschaft, priority 2020, published 2024).
Where two headings read alike, the source gives them in different places.

Key:
Format in all cases: in vivo
Viola tricolor (VIOTR) [1] = experiment: Pre-emergence herbicidal action against VIOTR
Outline: (§1)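 Herbicide applied to soil before seedling emergence, at 600 l/ha spray volume with 0.5% additive and rates up to 320 g/ha. Evaluation: visual percentage effect, about 3 weeks later, greenhouse-grown pots compared with untreated ones.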

[2] = system: Pharbitis purpurea (PHBPU); experiment: Post-emergence herbicidal action against PHBPU
Outline: (§2)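 Post-emergence greenhouse spray, one-leaf stage, 600 l/ha water plus 0.5% additive; WP or EC formulations; application rates 320 g/ha or lower. Visual % damage vs untreated controls at ~3 weeks.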

[3] = system: Matricaria inodora (MATIN); experiment: Post-emergence herbicidal action against MATIN; details: dosage 80 g/ha
Outline: as §2

Setaria viridis (SETVI) [4] = experiment: Post-emergence herbicidal action against SETVI; details: dosage 80 g/ha
Outline: as §2

[5] = system: Pharbitis purpurea (PHBPU); experiment: Pre-emergence herbicidal action against PHBPU
Outline: as §1

Avena fatua (AVEFA) [6] = experiment: Pre-emergence herbicidal action against AVEFA; details: visual scoring after about 3 weeks vs untreated controls
Outline: as §1

[7] = system: Verconica persica (VERPE); experiment: Pre-emergence herbicidal action against VERPE; details: dosage 320 g/ha
Outline: as §1

[8] = system: Abutilon theophrasti (ABUTH); experiment: Post-emergence herbicidal action against ABUTH; details: 80 g/ha, visual rating about 3 weeks after treatment vs untreated controls (100% = plants have died, 0% = like control plants)
Outline: as §2

[9] = system: Alopecurus myosuroides (ALOMY); experiment: Pre-emergence herbicidal action against ALOMY; details: 320 g/ha; scored visually after about 3 weeks; 100% = plants have died
Outline: as §1

Setaria viridis (SETVI) [10] = experiment: Pre-emergence herbicidal action against SETVI; details: dosage 320 g/ha
Outline: as §1

[11] = system: Alopecurus myosuroides (ALOMY); experiment: Post-emergence herbicidal action against ALOMY; details: visual rating about 3 weeks after treatment vs untreated controls (100% = plants have died, 0% = like control plants)
Outline: as §2

[12] = system: Polygonum convolvulus (POLCO); experiment: Pre-emergence herbicidal action against POLCO; details: dosage 320 g/ha
Outline: as §1

[13] = system: Echinochloa crus-galli (ECHCG); experiment: Pre-emergence herbicidal action against ECHCG; details: dosage 320 g/ha
Outline: as §1

[14] = system: Amaranthus retroflexus (AMARE); experiment: Pre-emergence herbicidal action against AMARE; details: visual scoring after about 3 weeks vs untreated controls
Outline: as §1

[15] = system: Abutilon theophrasti (ABUTH); experiment: Pre-emergence herbicidal action against ABUTH; details: Dosage column 320 g/ha (title prints 3200 g/ha); scored visually after about 3 weeks; 100% = plants have died
Outline: as §1

[16] = system: Verconica persica (VERPE); experiment: Post-emergence herbicidal action against VERPE
Outline: as §2

[17] = system: Amaranthus retroflexus (AMARE); experiment: Post-emergence herbicidal action against AMARE
Outline: as §2

Glycine max (GLXMA) = details: pre-emergence, crop plant compatibility, in comparison to untreated controls
Outline: (§3)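 Scoring: visual, % of untreated control, about 3 weeks after a pre-emergence application to the soil surface. Application used WP or EC formulations diluted in water with 0.5% additive at 600 l/ha; dosage levels are marked by suffixes a, b and c.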

Avena fatua (AVEFA) [18] = experiment: Post-emergence herbicidal action against AVEFA; details: 80 g/ha, visual rating about 3 weeks after treatment
Outline: as §2

Oryza sativa (ORYSA) [19] = details: crop plant compatibility
Outline: (§4)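 Greenhouse crops in sandy loam sprayed post-emergence at the one-leaf stage, 2–3 weeks after sowing, with WP or EC formulations in water plus 0.5% additive at 600 l/ha. Damage rated visually about 3 weeks later versus untreated controls (0% = like control, 100% = dead); suffixes a–c denote different doses.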

Zea mays (ZEAMX) [20] = details: for Post-emergence action against ZEAMX in %: crop plant compatibility, 80 g/ha, effect vs untreated controls
Outline: as §4

[21] = system: Matricaria inodora (MATIN); experiment: Pre-emergence herbicidal action against MATIN
Outline: as §1

[22] = system: Polygonum convolvulus (POLCO); experiment: Post-emergence herbicidal action against POLCO
Outline: as §2

[23] = system: Echinochloa crus-galli (ECHCG); experiment: Post-emergence herbicidal action against ECHCG; details: dosage 80 g/ha
Outline: as §2

Lolium rigidum (LOLRI) [24] = experiment: Pre-emergence herbicidal action against LOLRI
Outline: as §1

Viola tricolor (VIOTR) [25] = experiment: Post-emergence herbicidal action against VIOTR
Outline: as §2

Oryza sativa (ORYSA) [26] = details: pre-emergence, crop plant compatibility, in comparison to untreated controls
Outline: as §3

Zea mays (ZEAMX) [27] = details: pre-emergence, crop plant compatibility, in comparison to untreated controls
Outline: as §3

Lolium rigidum (LOLRI) [28] = experiment: Post-emergence herbicidal action against LOLRI; details: dosage 320 g/ha
Outline: as §2

[29] = system: Digitaria sanguinalis (DIGSA); experiment: Pre-emergence herbicidal action against DIGSA; details: dosage 320 g/ha
Outline: as §1

[30] = system: Digitaria sanguinalis (DIGSA); experiment: Post-emergence herbicidal action against DIGSA; details: 320 g/ha, visual rating about 3 weeks after treatment
Outline: as §2

[31] = 80 g/ha, visual rating about 3 weeks after treatment vs untreated controls (100% = plants have died, 0% = like control plants)
[32] = 320 g/ha, effect in comparison to untreated controls

COC(=O)CCOC(=O)COc1nn(-c2ccccn2)c(-c2cncc(F)c2)c1Br [Example I-77]
Pre-emergence action against VIOTR in % (Viola tricolor (VIOTR) [1]; 320 g/ha, Viola tricolor): 100% | Pre-emergence action against VIOTR in % (Viola tricolor (VIOTR) [1]; dosage 80 g/ha): 90% | Post-emergence action against PHBPU in % ([2]; dosage 80 g/ha): 90% | Post-emergence action against MATIN in % [3]: 90% | Post-emergence action against SETVI in % (Setaria viridis (SETVI) [4]): 80% | Pre-emergence action against PHBPU in % ([5]; dosage 80 g/ha): 80% | Pre-emergence action against PHBPU in % ([5]; dosage 320 g/ha): 90% | Pre-emergence action against AVEFA in % (Avena fatua (AVEFA) [6]; 80 g/ha): 80% | Pre-emergence action against AVEFA in % (Avena fatua (AVEFA) [6]; 320 g/ha): 90% | Pre-emergence action against VERPE in % [7]: 90% | Post-emergence action against ABUTH in % [8]: 80% | Pre-emergence action against ALOMY [9]: 90% | Pre-emergence action against SETVI in % (Setaria viridis (SETVI) [10]): 100% | Post-emergence action against ALOMY in % ([11]; 80 g/ha): 90% | Pre-emergence action against POLCO in % [12]: 90% | Pre-emergence action against ECHCG in % [13]: 100% | Pre-emergence action against AMARE in % ([14]; 80 g/ha): 90% | Pre-emergence action against AMARE in % ([14]; 320 g/ha): 100% | Pre-emergence action against ABUTH [15]: 80% | Post-emergence action against VERPE in % ([16]; dosage 80 g/ha): 90% | Post-emergence action against AMARE in % [17, 31]: 80% | Pre-emergence action against GLXMA in % (Glycine max (GLXMA); 80 g/ha): 0% | Post-emergence action against AVEFA in % (Avena fatua (AVEFA) [18]): 90% | Post-emergence action against ORYSA in % (Oryza sativa (ORYSA) [19]; 20 g/ha, effect vs untreated controls): 0% | Post-emergence action against ZEAMX in % (crop plant compatibility) (Zea mays (ZEAMX) [20]; 20 g/ha, ZEAMX, effect in comparison to untreated controls): 0% | Pre-emergence action against MATIN in % ([21]; dosage 80 g/ha): 80% | Pre-emergence action against MATIN in % ([21]; dosage 320 g/ha): 90% | Post-emergence action against POLCO in % ([22]; dosage 80 g/ha): 80% | Post-emergence action against ECHCG in % [23]: 90% | Pre-emergence action against LOLRI in % (Lolium rigidum (LOLRI) [24]; dosage 80 g/ha): 90% | Pre-emergence action against LOLRI in % (Lolium rigidum (LOLRI) [24]; dosage 320 g/ha): 100%

C[C@@H](Oc1nn(-c2ccnc(Cl)c2)c(-c2ccc(F)nc2)c1Br)C(=O)O [III-30]
Post-emergence action against ALOMY in % ([11]; 320 g/ha): 80% | Post-emergence action against VIOTR in % (Viola tricolor (VIOTR) [25]; 320 g/ha): 80% | Post-emergence action against VERPE in % ([16]; 320 g/ha, VERPE): 80% | Post-emergence action against AMARE in % [17, 31]: 80% | Post-emergence action against AMARE in % ([17]; 320 g/ha, visual rating about 3 weeks after treatment): 90% | Pre-emergence action against ORYSA in % (Oryza sativa (ORYSA) [26]; 80 g/ha): 10% | Pre-emergence action against ORYSA in % (Oryza sativa (ORYSA) [26]; 320 g/ha): 20% | Pre-emergence action against GLXMA in % (Glycine max (GLXMA); 80 g/ha): 20% | Pre-emergence action against GLXMA in % (Glycine max (GLXMA); 320 g/ha): 20% | Pre-emergence action against ZEAMX in % (Zea mays (ZEAMX) [27]; 80 g/ha): 0% | Pre-emergence action against ZEAMX in % (Zea mays (ZEAMX) [27]; 320 g/ha): 10% | Post-emergence action against ORYSA in % (Oryza sativa (ORYSA) [19]; 80 g/ha, effect in comparison to untreated controls): 10% | Post-emergence action against ORYSA in % (Oryza sativa (ORYSA) [19]; [32]): 20% | Post-emergence action against ZEAMX in % (Zea mays (ZEAMX) [20]): 20% | Post-emergence action against POLCO in % ([22]; dosage 320 g/ha): 90%

COC(=O)CCOC(=O)[C@@H](C)Oc1nn(-c2ccccn2)c(-c2ccc(Cl)nc2)c1Br [Example I-244]
Pre-emergence action against VIOTR in % (Viola tricolor (VIOTR) [1]; 320 g/ha, Viola tricolor): 90% | Post-emergence action against PHBPU in % ([2]; dosage 320 g/ha): 80% | Post-emergence action against LOLRI in % (Lolium rigidum (LOLRI) [28]): 80% | Pre-emergence action against DIGSA in % [29]: 90% | Pre-emergence action against ALOMY [9]: 90% | Post-emergence action against ALOMY in % ([11]; 320 g/ha): 80% | Pre-emergence action against POLCO in % [12]: 80% | Post-emergence action against DIGSA in % [30]: 80% | Post-emergence action against VIOTR in % (Viola tricolor (VIOTR) [25]; 80 g/ha): 80% | Post-emergence action against VIOTR in % (Viola tricolor (VIOTR) [25]; 320 g/ha): 80% | Pre-emergence action against AMARE in % ([14]; 320 g/ha): 90% | Pre-emergence action against GLXMA in % (Glycine max (GLXMA); 80 g/ha): 0% | Pre-emergence action against ZEAMX in % (Zea mays (ZEAMX) [27]; 80 g/ha): 0% | Post-emergence action against ORYSA in % (Oryza sativa (ORYSA) [19]; [32]): 0% | Post-emergence action against ZEAMX in % (Zea mays (ZEAMX) [20]): 20% | Post-emergence action against POLCO in % ([22]; dosage 80 g/ha): 80% | Post-emergence action against POLCO in % ([22]; dosage 320 g/ha): 80% | Pre-emergence action against LOLRI in % (Lolium rigidum (LOLRI) [24]; dosage 320 g/ha): 100%
